According to patent US20230149515A1, “INHIBITION OF SARS-COV-2 VIRAL ENTRY THROUGH ORAL ADMINISTRATION OF L[…] USES THEREOF” (priority 2020, published 2023):

System: SARS-CoV-2
Format: cell-based
Settings: positive control; Huh7 cells; FIG. 1 (50 nanomolar Remdesivir)

CCC(CC)COC(=O)[C@H](C)N[P@](=O)(OC[C@H]1O[C@@](C#N)(c2ccc3c(N)ncnn23)[C@H](O)[C@@H]1O)Oc1ccccc1 [Remdesivir, reference compound]
efficacy in SARS-CoV-2 infectivity assay: 100%
